Experimental data taken from PubChem BioAssay AID248 (DTP/NCI, 2004).
Values joined by “and” are separate entries in the source; they are usually repeats but may differ in a detail not shown here. Equal entries are not always repeated. Toxic doses and inconclusive results are not listed. No stated cut-off is given here; in the data, active means T/C of 150% or more; inactive means T/C below 125%.

Tested on: L1210 leukemia ip in BDF1 mice, survival T/C
Assay: NCI In Vivo Anticancer Drug Screen. Data for tumor model L1210 Leukemia (intraperitoneal) in B6D2F1 (BDF1) mice
Details: endpoint: mean survival time, higher = longer survival
Procedure, shortened: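 Read-out is survival time, reported as the treated-group measurement over the vehicle-control measurement.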

[1] = dose: 50.0 mg/kg/injection, schedule: Q01DX009 (ip), vehicle: Klucel (hydroxypropylcellulose) (HPC)
[2] = dose: 100.0 mg/kg/injection, schedule: Q01DX009 (ip), vehicle: Klucel (hydroxypropylcellulose) (HPC)
[3] = dose: 100.0 mg/kg/injection, schedule: Q01DX001 (ip), vehicle: carboxymethylcellulose (CMC)
[4] = dose: 200.0 mg/kg/injection, schedule: Q01DX001 (ip), vehicle: carboxymethylcellulose (CMC)
[5] = dose: 100.0 mg/kg/injection, schedule: Q04DX003 (ip), vehicle: saline with Tween-80
[6] = dose: 200.0 mg/kg/injection, schedule: Q01DX009 (ip), vehicle: saline with Tween-80
[7] = dose: 200.0 mg/kg/injection, schedule: Q04DX003 (ip), vehicle: saline with Tween-80
[8] = dose: 100.0 mg/kg/injection, schedule: Q01DX009 (ip), vehicle: saline
[9] = dose: 200.0 mg/kg/injection, schedule: Q01DX009 (ip), vehicle: saline
[10] = dose: 400.0 mg/kg/injection, schedule: Q01DX009 (ip), vehicle: saline
[11] = dose: 100.0 mg/kg/injection, schedule: Q04DX002 (ip), vehicle: saline with Tween-80
[12] = dose: 200.0 mg/kg/injection, schedule: Q04DX002 (ip), vehicle: saline with Tween-80
[13] = dose: 100.0 mg/kg/injection, schedule: Q04DX003 (ip), vehicle: Klucel (hydroxypropylcellulose) (HPC)
[14] = dose: 200.0 mg/kg/injection, schedule: Q01DX009 (ip), vehicle: Klucel (hydroxypropylcellulose) (HPC)
[15] = dose: 200.0 mg/kg/injection, schedule: Q04DX003 (ip), vehicle: Klucel (hydroxypropylcellulose) (HPC)
[16] = dose: 400.0 mg/kg/injection, schedule: Q04DX003 (ip), vehicle: Klucel (hydroxypropylcellulose) (HPC)
[17] = dose: 100.0 mg/kg/injection, schedule: Q01DX009 (ip), vehicle: saline with Tween-80

Measured: T/C

O=[N+]([O-])c1cc(Cl)c(Cl)cc1[N+](=O)[O-]
inactive: dose: 50.0 mg/kg/injection, schedule: Q04DX002 (ip), vehicle: Klucel (hydroxypropylcellulose) (HPC) 106 % of control | dose: 75.0 mg/kg/injection, schedule: Q04DX002 (ip), vehicle: Klucel (hydroxypropylcellulose) (HPC) 103 % of control | dose: 150.0 mg/kg/injection, schedule: Q04DX002 (ip), vehicle: Klucel (hydroxypropylcellulose) (HPC) 101 % of control and 110 % of control

CSc1nc(Cl)c(Cl)c(SC)n1 (tested in a mixture with another compound)
inactive: [1] 87 % of control | [2] 87 % of control

O=C(OC1(c2ccccc2)CC2CC1c1ccccc12)c1ccc([N+](=O)[O-])cc1 (configuration not stated)
inactive: dose: 50.0 mg/kg/injection, schedule: Q01DX001 (ip), vehicle: carboxymethylcellulose (CMC) 88 % of control | [3] 95 % of control | [4] 95 % of control

Cc1ccc(C(Br)S(=O)(=O)c2ccccc2)cc1 (configuration not stated)
inactive: dose: 100.0 mg/kg/injection, schedule: Q04DX002 (ip), vehicle: Klucel (hydroxypropylcellulose) (HPC) 97 % of control | dose: 200.0 mg/kg/injection, schedule: Q04DX002 (ip), vehicle: Klucel (hydroxypropylcellulose) (HPC) 86 % of control | dose: 400.0 mg/kg/injection, schedule: Q04DX002 (ip), vehicle: Klucel (hydroxypropylcellulose) (HPC) 111 % of control

C=CCn1c(=S)[nH]c2ccccc2c1=O
inactive: [5] 93 % of control | [6] 91 % of control | [7] 94 % of control | dose: 400.0 mg/kg/injection, schedule: Q01DX009 (ip), vehicle: saline with Tween-80 89 % of control | dose: 400.0 mg/kg/injection, schedule: Q04DX003 (ip), vehicle: saline with Tween-80 96 % of control

CCCCCCCCOC(=O)Nc1ccc(S(=O)(=O)N(C)C)cc1
inactive: [3] 98 % of control | [4] 97 % of control | dose: 400.0 mg/kg/injection, schedule: Q01DX001 (ip), vehicle: carboxymethylcellulose (CMC) 89 % of control

CC(=O)CC(=O)N1CCN(C(=O)CC(C)=O)CC1
inactive: [8] 100 % of control | [9] 96 % of control | [10] 100 % of control

CC(C=C1CCCCC1)C(=O)O (configuration not stated)
inactive: [8] 95 % of control | dose: 100.0 mg/kg/injection, schedule: Q04DX003 (ip), vehicle: saline 102 % of control | [9] 105 % of control | dose: 200.0 mg/kg/injection, schedule: Q04DX003 (ip), vehicle: saline 102 % of control | [10] 97 % of control | dose: 400.0 mg/kg/injection, schedule: Q04DX003 (ip), vehicle: saline 105 % of control

c1ccc(P(N2CCOCC2)N2CCOCC2)cc1
inactive: [11] 93 % of control | [12] 97 % of control | dose: 400.0 mg/kg/injection, schedule: Q04DX002 (ip), vehicle: saline with Tween-80 97 % of control

Cc1ccn(C(N)=O)n1
inactive: [2] 107 % of control | [13] 98 % of control | [14] 102 % of control | [15] 96 % of control | dose: 400.0 mg/kg/injection, schedule: Q01DX009 (ip), vehicle: Klucel (hydroxypropylcellulose) (HPC) 115 % of control | [16] 100 % of control

CC(=O)Oc1cccc(C)c1
inactive: [17] 104 % of control | [6] 106 % of control

CCOC(=O)Cn1c(=O)c2ccccc2c2cc([N+](=O)[O-])ccc21
inactive: [13] 95 % of control | [15] 97 % of control | [16] 86 % of control

O=C(CC(O)(C(F)(F)F)C(F)(F)F)c1cc(CC(=O)C(O)(C(F)(F)F)C(F)(F)F)cc(CC(=O)C(O)(C(F)(F)F)C(F)(F)F)c1
inactive: [13] 100 % of control | [15] 92 % of control | [16] 97 % of control

CC(C)(C)CC(O)Cc1ccccc1 (configuration not stated)
inactive: [11] 93 % of control | [12] 93 % of control

Cc1nc(N)ccc1[N+](=O)[O-]
inactive: dose: 100.0 mg/kg/injection, schedule: Q04DX003 (ip), vehicle: saline sonified 98 % of control | dose: 200.0 mg/kg/injection, schedule: Q04DX003 (ip), vehicle: saline sonified 101 % of control | dose: 400.0 mg/kg/injection, schedule: Q04DX003 (ip), vehicle: saline sonified 104 % of control

NC(=O)NCC(=O)O
inactive: dose: 50.0 mg/kg/injection, schedule: Q01DX001 (ip), vehicle: Klucel (hydroxypropylcellulose) (HPC) 96 % of control | [1] 91 % of control | dose: 100.0 mg/kg/injection, schedule: Q01DX001 (ip), vehicle: Klucel (hydroxypropylcellulose) (HPC) 100 % of control | [2] 100 % of control | dose: 200.0 mg/kg/injection, schedule: Q01DX001 (ip), vehicle: Klucel (hydroxypropylcellulose) (HPC) 100 % of control | [14] 96 % of control | dose: 400.0 mg/kg/injection, schedule: Q01DX001 (ip), vehicle: Klucel (hydroxypropylcellulose) (HPC) 94 % of control

CCOC(=O)c1ccc2c(ccc[n+]2C)c1
inactive: dose: 75.0 mg/kg/injection, schedule: Q01DX001 (ip), vehicle: saline 97 % of control | dose: 75.0 mg/kg/injection, schedule: Q04DX003 (ip), vehicle: saline 107 % of control | dose: 150.0 mg/kg/injection, schedule: Q01DX001 (ip), vehicle: saline 97 % of control | dose: 150.0 mg/kg/injection, schedule: Q04DX003 (ip), vehicle: saline 105 % of control | dose: 300.0 mg/kg/injection, schedule: Q01DX001 (ip), vehicle: saline 95 % of control

C1=C\CCCC/C=C/CC/1
inactive: dose: 50.0 mg/kg/injection, schedule: Q01DX001 (ip), vehicle: saline 103 % of control | dose: 100.0 mg/kg/injection, schedule: Q01DX001 (ip), vehicle: saline 92 % of control | dose: 200.0 mg/kg/injection, schedule: Q01DX001 (ip), vehicle: saline 101 % of control | dose: 400.0 mg/kg/injection, schedule: Q01DX001 (ip), vehicle: saline 90 % of control

CC(=O)CC(=O)n1c(=O)cc(C)c2ccccc21
inactive: dose: 75.0 mg/kg/injection, schedule: Q04DX003 (ip), vehicle: saline with Tween-80 117 % of control | dose: 150.0 mg/kg/injection, schedule: Q04DX003 (ip), vehicle: saline with Tween-80 98 % of control | dose: 300.0 mg/kg/injection, schedule: Q04DX003 (ip), vehicle: saline with Tween-80 98 % of control

O=C(O)C(CNC(=O)C(F)(F)F)Cc1ccc([N+](=O)[O-])cc1 (configuration not stated)
inactive: [17] 120 % of control | [8] 88 % of control | [9] 103 % of control

CC1(C)CC(=O)c2c(OC(=O)N(CCCl)CCCl)cc(OC(=O)N(CCCl)CCCl)cc2O1
inactive: dose: 25.0 mg/kg/injection, schedule: Q04DX002 (ip), vehicle: alcohol 94 % of control | dose: 50.0 mg/kg/injection, schedule: Q04DX002 (ip), vehicle: alcohol 113 % of control | dose: 100.0 mg/kg/injection, schedule: Q04DX002 (ip), vehicle: alcohol 94 % of control | dose: 200.0 mg/kg/injection, schedule: Q04DX002 (ip), vehicle: alcohol 97 % of control | dose: 400.0 mg/kg/injection, schedule: Q04DX002 (ip), vehicle: alcohol 90 % of control

CC(C)C(CN)(CCN(C)C)c1cccc2ccccc12 (configuration not stated)
inactive: [5] 88 % of control

C(=NCCN=Cc1c[nH]c2ccccc12)c1c[nH]c2ccccc12
inactive: [17] 100 % of control | [5] 89 % of control | [6] 102 % of control | [7] 96 % of control
